How the values were obtained:
Format in all cases: toxicity, cell-based
[1] = tested on: HEK-293T; assay: Incucyte cell viability with HEK293T; details: human, 10 µM, compound concentration 10 uM
[2] = tested on: Fibroblast; assay: Incucyte cell viability with human fibroblast; details: 10 µM, compound concentration 10 uM
[3] = tested on: U2OS; assay: Incucyte cell viability with U2OS; details: human, 10 µM, compound concentration 10 uM
[4] = 0 h, replicate number 2, timepoint 0 hours
[5] = 6 h, replicate number 1, timepoint 6 hours
[6] = 12 h, replicate number 1, timepoint 12 hours
[7] = 18 h, replicate number 1, timepoint 18 hours
[8] = 24 h, replicate number 1, timepoint 24 hours
[9] = 0 h, replicate number 1, timepoint 0 hours
[10] = 6 h, replicate number 2, timepoint 6 hours
[11] = 12 h, replicate number 2, timepoint 12 hours
[12] = 24 h, replicate number 2, timepoint 24 hours
[13] = 18 h, replicate number 2, timepoint 18 hours
Further: filed as whole numbers so only -1 and 0 and 1 occur.

| SMILES | Growth Rate [1, 4] | Growth Rate [1, 5] | Growth Rate [1, 6] | Growth Rate [1, 7] | Growth Rate [1, 8] | Growth Rate [2, 9] | Growth Rate [2, 4] | Growth Rate [2, 10] | Growth Rate [2, 11] | Growth Rate [3, 5] | Growth Rate [3, 6] | Growth Rate [3, 7] | Growth Rate [3, 8] | Growth Rate [3, 12] | Growth Rate [1, 13] | Growth Rate [2, 5] | Growth Rate [2, 6] | Growth Rate [2, 7] | Growth Rate [2, 8] | Growth Rate [3, 9] | further results |
| --- | --- | --- | --- | --- | --- | --- | --- | --- | --- | --- | --- | --- | --- | --- | --- | --- | --- | --- | --- | --- | --- |
| COc1cc(N2CCC(O)CC2)ccc1Nc1cc(Nc2ccccc2S(=O)(=O)C(C)C)c2cc[nH]c2n1 | 1 | 0 | 0 | 0 | 0 | 1 | 0 | 1 | 1 | 1 | 1 | 1 | 1 | 0 | – | – | – | – | – | – | Growth Rate [2, 12]: 1; Growth Rate [3, 13]: 0 |
| COc1ccc(Br)cc1S(=O)(=O)NC(=O)/C=C/c1ccccc1Cc1ccc2ccccc2c1 | 0 | 0 | 0 | 0 | 0 | 1 | 0 | 1 | – | – | – | 1 | 1 | 0 | 1 | 0 | 1 | 0 | 0 | 0 | Growth Rate [1, 10]: 1; Growth Rate [1, 11]: 1; Growth Rate [1, 12]: 1; Growth Rate [2, 13]: 1; Growth Rate [2, 12]: 1; Growth Rate [3, 10]: 0; Growth Rate [3, 11]: 1 |
| COc1ccc(CCc2nc3cc(-c4c(C)noc4C)ccc3n2C[C@H](C)N2CCOCC2)cc1Cl | 1 | 0 | 1 | 0 | 0 | 0 | – | 0 | – | 0 | 1 | 1 | 1 | – | 1 | 1 | 1 | 1 | 1 | 1 | Growth Rate [1, 10]: 1; Growth Rate [1, 11]: 0; Growth Rate [3, 4]: 0 |
| CN1CCN(c2ccc(-c3cccc(CN4CCOCC4)c3)cc2NC(=O)c2c[nH]c(=O)cc2C(F)(F)F)CC1 | 1 | 0 | 0 | 1 | 1 | – | 1 | 0 | 0 | 1 | 0 | 0 | 1 | 0 | – | – | 1 | 1 | 1 | 0 | Growth Rate [3, 10]: 0; Growth Rate [3, 13]: 1 |
| Cl.O=C(Cc1ccc(Cl)c(Cl)c1)N1CCCC[C@H]1CN1CCCC1 | 0 | 0 | 0 | 0 | 0 | 0 | 1 | – | – | – | 1 | 1 | 1 | – | 1 | – | – | – | – | 0 | Growth Rate [3, 10]: 1 |
| CCN(Cc1ccc(Cl)cc1)c1ncc(C(=O)NCCCN2CCCC2=O)c(NC2CCCC2)n1 | – | – | – | – | – | – | 0 | 0 | 0 | 1 | 1 | 1 | 1 | – | – | 1 | 1 | 1 | 1 | – | Growth Rate [1, 9]: 0; Growth Rate [3, 4]: 0 |
| CC(C)(C)c1ccc(C(=O)Nc2cn3cc(-n4ccnc4)ccc3n2)cc1.Cl.Cl | 1 | 0 | 0 | 0 | 0 | 0 | – | – | – | 1 | 1 | 1 | 1 | – | – | – | 1 | 1 | 1 | 1 | Growth Rate [3, 4]: 0 |

Source: ChEMBL document CHEMBL4689842, “EUbOPEN Chemogenomics Library wave 1” (2021)
